Measurements reported in PMC11859074, “Exploring the Anticancer Potential of NO-Donor Oxadiazole Assemblies Against Malignant Pleural Mesothelioma” (Pharmaceutics, 2025).
Where “and” joins values, the source holds several entries; their conditions need not be identical. Identical values can stand only once. Like-named read-outs stand apart in the source and are kept apart here.

Tests used:
[1] = NO release assay (Griess assay, phosphate buffer with L-cysteine); conditions: for NO Released (%) 1 h / NO Released (%) 24 h / NO Released (%) 48 h: % NO2− (μmol/μmol) relative to initial concentration (100 μM), L-cysteine; for NO Released (%) 1 h: phosphate buffer pH 7.4, 37 °C; for NO Released (%) 24 h: phosphate buffer pH 7.4, 24 h; for NO Released (%) 48 h: phosphate buffer pH 7.4, 48 h; for Fold Change 24 h/1 h: ratio of NO released at 24 h to 1 h; for Fold Change 48 h/1 h: ratio of NO released at 48 h to 1 h; for Fold Change 48 h/24 h: ratio of NO released at 48 h to 24 h; for NO-donor capacity: Griess assay, time point not stated
[2] = system: AB1 (mouse malignant mesothelioma cell line); set-up: method as in doi:10.1039/D4NJ02047B; conditions: MTT assay, 72 h exposure; ref [33]; cited from earlier work
[3] = system: JU77 (human mesothelioma cell line); set-up: method as in doi:10.1039/D4NJ02047B; conditions: ref [33], cited from earlier work
[4] = system: MRC-5 (human embryonic lung fibroblast cell line); set-up: method as in doi:10.1039/D4NJ02047B; conditions: MTT assay, 72 h exposure; ref [33]; cited from earlier work
[5] = system: AB1 (mouse malignant mesothelioma cell line); assay: MTT cytotoxicity assay, AB1 cells; assay type: cell-based; conditions: 72 h exposure
Procedure: (§1) AB1 (mouse malignant mesothelioma cell line) and JU77 (human mesothelioma cell line) were obtained from Cell Bank Australia; MRC-5 (human embryonic lung fibroblast cell line) was obtained from ATCC. […] Cells were grown in tissue culture flasks (75 cm^2 and 25 cm^2, SPL Life Sciences, Pocheon, South Korea). […] The cytotoxicity of compounds was determined using the MTT colorimetric test. Cells were harvested from culture flasks by trypsinization and seeded into Cellstar 96-well microculture plates at a seeding density of 6000 cells per well (6 × 10^4 cells per mL). After the cells were allowed to resume exponential growth for 24 h, they were exposed to drugs at different concentrations in media for 72 h. The tested compounds were diluted in the complete medium at the desired concentrations added to each well (100 μL) and serially diluted to other wells. After 72 h of exposure, the medium was replaced with MTT (5 mg mL^−1, 100 μL per well) and incubated for an additional 50 min. Subsequently, the medium was aspirated, and the purple formazan crystals formed in viable cells were dissolved in DMSO (100 μL per well). […] The evaluation was based on means from at least three independent experiments, each comprising three replicates per concentration level.

[6] = system: JU77 (human mesothelioma cell line); assay: cells; assay type: cell-based; conditions: for IC50: Homo sapiens, MTT assay, 72 h exposure; for SFJU77 (selectivity factor): IC50(MRC-5)/IC50(JU77); for times higher cytotoxicity in human MPM cells compared to human lung fibroblasts: 72 h
Procedure: as §1

[7] = system: MRC-5 (human embryonic lung fibroblast cell line); assay: MTT cytotoxicity assay, MRC-5 cells; assay type: cell-based; conditions: MRC5, 72 h exposure
Procedure: as §1

[8] = system: AB1 and JU77 mesothelioma cell lines; assay: cells; assay type: cell-based, mouse and human; conditions: for IC50: MPM, range over AB1 and JU77, 72 h MTT, read-out: IC50 values in both cell lines
Procedure: as §1

| Structure (SMILES) | NO Released (%) 1 h [1] | NO Released (%) 24 h [1] [%] | NO Released (%) 48 h [1] [%] | Fold Change 24 h/1 h [1] | Fold Change 48 h/1 h [1] | Fold Change 48 h/24 h [1] | IC50 [2] [µM] | SFJU77 (selectivity factor) ([3]; IC50(MRC-5)/IC50(JU77)) | IC50 ([3]; MTT assay, 72 h exposure) [µM] | IC50 [4] [µM] | IC50 [5] [µM] | IC50 [6] [µM] | SFJU77 (selectivity factor) [6] | IC50 [7] [µM] | times higher cytotoxicity in human MPM cells compared to human lung fibroblasts [6] | NO-donor capacity [1] [%] | IC50 [8] [µM] | selectivity for cancer cells (in words) ([6]; MPM cells vs MRC-5 human lung fibroblasts) | cytotoxicity (in words) [8] |
| --- | --- | --- | --- | --- | --- | --- | --- | --- | --- | --- | --- | --- | --- | --- | --- | --- | --- | --- | --- |
| NC(=O)c1c(CO)no[n+]1[O-] [CAS-1609, 3-carbamoyl-4-(hydroxymethyl)furoxan, reference compound] | 27% and 27 ± 3% | 68 ± 6 | 73 ± 6 | 2.5 | 2.7 | 1.1 | – | – | – | – | – | – | – | – | – | – | – | – | – |
| CCOc1no[n+]([O-])c1S(=O)(=O)c1ccccc1 [CHF-2363, 4-ethoxy-3-phenylsulphonylfuroxan, reference compound] | 26 ± 10% | 71 ± 4 | 77 ± 9 | 2.7 | 3.0 | 1.1 | – | – | – | – | – | – | – | – | – | – | – | – | – |
| N.N.[Cl][Pt][Cl] [Cisplatin, cisplatin] | – | – | – | – | – | – | 5.8 ± 1 | 0.7 | 4.2 ± 0.5 | 3.1 ± 1.2 | – | – | – | – | – | – | – | – | – |
| N#Cc1c(-c2noc(-c3ccccc3)n2)no[n+]1[O-] [Compound 2a, 3-Cyano-4-(5-phenyl-1,2,4-oxadiazolyl)furoxan] | 50 ± 8% | 59 ± 5 | 89 ± 6 | 1.2 | 1.8 | 1.5 | – | – | – | – | 3.4 ± 0.2 | 3.7 ± 1 | 1.0 | 3.7 | – | – | – | – | – |
| N#Cc1c(-c2noc(-c3ccc([N+](=O)[O-])cc3)n2)no[n+]1[O-] [Compound 2b, 3-Cyano-4-(5-(4-nitrophenyl)-1,2,4-oxadiazolyl)furoxan] | 51 ± 11% | 74 ± 1 | 80 ± 4 | 1.5 | 1.6 | 1.1 | – | – | – | – | 4.1 ± 0.9 | 2.7 ± 0.2 | 1.6 | 4.4 ± 0.6 | – | – | – | – | – |
| N#Cc1c(-c2noc(-c3cccc([N+](=O)[O-])c3)n2)no[n+]1[O-] [Compound 2c, 3-Cyano-4-(5-(3-nitrophenyl)-1,2,4-oxadiazolyl)furoxan] | 61 ± 8% | 107 ± 8 | 107 ± 10 | 1.8 | 1.8 | 1.0 | – | – | – | – | 2.8 ± 0.5 | 1.2 ± 0.2 | 3.6 | 4.3 ± 0.3 | 2.4-3.6 times | > 100 | – | – | – |
| N#Cc1c(-c2noc(-c3ccccc3[N+](=O)[O-])n2)no[n+]1[O-] [Compound 2d, 3-Cyano-4-(5-(2-nitrophenyl)-1,2,4-oxadiazolyl)furoxan] | 69 ± 1% | 86 ± 3 | 89 ± 3 | 1.2 | 1.3 | 1.0 | – | – | – | – | 1.8 ± 0.2 | 0.87 ± 0.07 | 2.5 | 2.2 ± 0.2 | 2.4-3.6 times | – | 0.87 to 1.8 | – | – |
| N#Cc1c(-c2noc(-c3ccncc3)n2)no[n+]1[O-] [Compound 2e, 3-Cyano-4-(5-(pyridin-4-yl)-1,2,4-oxadiazolyl)furoxan] | 53 ± 7% | 87 ± 13 | 87 ± 11 | 1.6 | 1.6 | 1.0 | – | – | – | – | 7.9 ± 2 | 4.2 ± 0.8 | 1.1 | 4.7 ± 0.3 | – | – | – | low selectivity for cancer cells | – |
| COCc1nc(-c2no[n+]([O-])c2C#N)no1 [Compound 2f, 3-Cyano-4-(5-(methoxymethyl)-1,2,4-oxadiazolyl)furoxan] | 50 ± 7% | 66 ± 11 | 71 ± 11 | 1.3 | 1.4 | 1.1 | – | – | – | – | > 150 | > 150 | – | > 150 | – | – | – | – | no cytotoxic effects |
| Cc1ccc(-c2nc(-c3no[n+]([O-])c3C#N)no2)cc1 [Compound 2g, 3-Cyano-4-(5-(p-tolyl)-1,2,4-oxadiazolyl)furoxan] | 59 ± 1% | 74 ± 6 | 81 ± 10 | 1.3 | 1.4 | 1.1 | – | – | – | – | 4.9 ± 1.4 | 3.1 ± 0.2 | 1.5 | 4.8 ± 0.3 | – | – | – | – | – |
| COc1ccc(-c2nc(-c3no[n+]([O-])c3C#N)no2)cc1 [Compound 2h, 3-Cyano-4-(5-(4-methoxyphenyl)-1,2,4-oxadiazolyl)furoxan] | 54 ± 6% | 79 ± 5 | 86 ± 4 | 1.5 | 1.6 | 1.1 | – | – | – | – | 4.1 ± 0.7 | 2.9 ± 0.3 | 1.4 | 4.2 ± 0.7 | – | – | – | – | – |
| COc1ccc(-c2nc(-c3no[n+]([O-])c3C#N)no2)cc1OC [Compound 2i, 3-Cyano-4-(5-(3,4-dimethoxyphenyl)-1,2,4-oxadiazolyl)furoxan] | 54 ± 14% | 82 ± 14 | 94 ±14 | 1.5 | 1.7 | 1.1 | – | – | – | – | 3.3 ± 0.7 | 1.6 ± 0.4 | 2.5 | 4 ± 0.6 | 2.4-3.6 times | – | – | – | – |
| N#Cc1c(-c2noc(-c3ccccc3Cl)n2)no[n+]1[O-] [Compound 2j, 4-(5-(2-Chlorophenyl)-1,2,4-oxadiazolyl)-3-cyanofuroxan] | 53 ± 4% | 80 ± 3 | 84 ± 2 | 1.5 | 1.6 | 1.1 | – | – | – | – | 2.1 ± 0.3 | 1.4 ± 0.2 | 2.4 | 3.3 ± 0.3 | 2.4-3.6 times | – | – | – | – |
| N#Cc1c(-c2noc(-c3ccco3)n2)no[n+]1[O-] [Compound 2k, 3-Cyano-4-(5-(2-furyl)-1,2,4-oxadiazolyl)furoxan] | 73 ± 7% | 97 ± 6 | 104 ± 12 | 1.3 | 1.4 | 1.1 | – | – | – | – | 1.4 ± 0.4 | 0.99 ± 0.13 | 1.5 | 1.5 ± 0.3 | – | > 100 | 0.87 to 1.8 | – | – |
| N#Cc1c(-c2ncon2)no[n+]1[O-] [Compound 2l, 3-Cyano-4-(1,2,4-oxadiazolyl)furoxan] | 42 ± 5% | 68 ± 8 | 72 ± 8 | 1.6 | 1.7 | 1.1 | – | – | – | – | 7 ± 1.3 | 5.4 ± 1.3 | 0.9 | 4.6 ± 1 | – | – | 5.4 to 7 | – | – |
